Laboratory results published in patent publication US6350585B1, “Reagent for assay of amylase isozyme activity” (priority 1998, dated 2002).

Columns and labels:
S-type amylase = target: T1, S-type amylase (Homo sapiens, UniProt P0DUB6); test: S-type amylase activity assay of serum by subtraction (reagent F minus reagent G); assay type: biochemical; settings: for S-type amylase activity value: change in absorbance with reagent F minus reagent G
T1 construct: Serum (1, 2 or 3); from tissue; host or cells: serum
T1 sequence (P0DUB6 16-511): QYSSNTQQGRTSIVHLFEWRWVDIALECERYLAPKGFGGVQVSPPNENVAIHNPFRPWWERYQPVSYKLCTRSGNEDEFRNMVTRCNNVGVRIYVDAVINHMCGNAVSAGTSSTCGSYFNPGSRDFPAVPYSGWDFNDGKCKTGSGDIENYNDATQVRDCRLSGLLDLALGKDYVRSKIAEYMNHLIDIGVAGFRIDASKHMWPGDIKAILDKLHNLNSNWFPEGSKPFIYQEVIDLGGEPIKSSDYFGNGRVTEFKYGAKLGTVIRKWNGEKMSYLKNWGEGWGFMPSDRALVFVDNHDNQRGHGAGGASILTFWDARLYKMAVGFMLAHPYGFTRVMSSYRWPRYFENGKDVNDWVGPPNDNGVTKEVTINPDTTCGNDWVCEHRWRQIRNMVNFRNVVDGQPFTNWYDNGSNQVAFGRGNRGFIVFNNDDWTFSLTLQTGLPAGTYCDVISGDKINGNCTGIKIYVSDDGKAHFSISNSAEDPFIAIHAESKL
Description: Potassium thiocyanate 140 mM
(§1) Substrate (GalG2CNP (Example) or G3CNP (Comparative Example)) 2.6 mM
S-type amylase inhibitory antibody 88E8 (manufactured by Roche Diagnostics K.K.) 15 mg/L
S-type amylase inhibitory antibody 66C7 (manufactured by Roche Diagnostics K.K.) 1.25 mg/L
(1) Distilled Water(Blank)
Each of the above-mentioned reagents (0.05 mL) was added to the above reagent F (3 mL) and the mixtures were left standing at 37° C. for 3 minutes. Then, change in absorbance at 405 nm was assayed and change in absorbance per minute was calculated (change in absorbance a). The same procedure was repeated using reagent G and change in absorbance per minute was calculated (change in absorbance b). Then, change in absorbance b was subtracted from change in absorbance a to give change in absorbance c, which was converted to S-type amylase activity value at this composition using the molecular extinction coefficient of CNP.

[1] = target: T2, P-type amylase (Calibzyme P) (Homo sapiens, UniProt P04746); test: amylase isozyme activity assay with potassium thiocyanate as activator, P-type amylase sample; assay type: biochemical; settings: for Change in absorbance, Containing Antibody (Composition A) / Change in absorbance, Without antibody (Composition B) / Relative sensitivity / Percent residual enzyme activity: P-type amylase; for Relative sensitivity: G3CNP at 900 mM = 100; for Percent residual enzyme activity: composition A/B
T2 construct: purchased International Reagents Corporation Calibzyme P
T2 sequence (P04746 16-511): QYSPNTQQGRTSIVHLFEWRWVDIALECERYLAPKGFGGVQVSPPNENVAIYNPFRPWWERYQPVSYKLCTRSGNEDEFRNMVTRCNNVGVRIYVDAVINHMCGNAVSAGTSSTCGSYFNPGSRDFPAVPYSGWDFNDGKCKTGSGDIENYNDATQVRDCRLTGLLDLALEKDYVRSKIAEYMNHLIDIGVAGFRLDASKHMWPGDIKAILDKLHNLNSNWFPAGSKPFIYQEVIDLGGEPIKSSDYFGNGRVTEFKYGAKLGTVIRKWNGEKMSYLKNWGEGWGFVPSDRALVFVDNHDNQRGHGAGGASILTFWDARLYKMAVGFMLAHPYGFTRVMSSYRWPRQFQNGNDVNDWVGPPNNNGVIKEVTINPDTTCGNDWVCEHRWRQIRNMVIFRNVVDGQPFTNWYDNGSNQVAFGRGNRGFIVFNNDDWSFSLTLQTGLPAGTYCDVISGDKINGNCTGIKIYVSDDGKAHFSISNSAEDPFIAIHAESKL
Description: A reagent for amylase isozyme activity assay comprising each composition as mentioned below was prepared. In the Table showing the composition, GalG2CNP (Example) is 2-chloro-4-nitrophenyl 4-O-β-D-galactopyranosylmaltoside, and G3CNP (Comparative Example) is 2-chloro-4-nitrophenylmaltotrioside.
S-type amylase-inhibiting antibody 88E8 (manufactured by Roche Diagnostics K.K.) 20 mg/L
S-type amylase-inhibiting antibody 66C7 (manufactured by Roche Diagnostics K.K.) 5 mg/L
as §1
(2) P-type Amylase (Calibzyme P, Manufactured by International Reagents Corporation)
Each sample (0.05 mL was added to the reagent A (3 mL) and the reagent B (3 mL), respectively, and the mixtures were allowed to stand at 37° C. for 3 minutes. Then, the change in absorbance at 405 nm was assayed, and the change in absorbance per minute was calculated. The results are shown in Tables 1 and 2.
In the Tables, P is the case where P-type amylase was used as the sample, and S is the case where S-type amylase was used.
Percent residual enzyme activity (%)=(change in absorbance of composition A)/(change in absorbance of composition B)×100
Relative sensitivity (%)=(change in absorbance of composition B)/(change in absorbance of Comparative Example wherein potassium thiocyanate was 900 mM)×100

## O=[N+]([O-])c1ccc(O[C@H]2O[C@H](CO)[C@@H](O[C@H]3O[C@H](CO)[C@@H](O[C@H]4O[C@H](CO)[C@@H](O)[C@H](O)[C@H]4O)[C@H](O)[C@H]3O)[C@H](O)[C@H]2O)c(Cl)c1 [Example G3CNP, 2-chloro-4-nitrophenylmaltotrioside, reference compound]
S-type amylase; Serum 1
  S-type amylase activity value: 23.4 IU/L
S-type amylase; Serum 2
  S-type amylase activity value: 87.5 IU/L
S-type amylase; Serum 3
  S-type amylase activity value: 71.9 IU/L
S-type amylase; distilled water as sample, compositions F and G
  Blank, change in absorbance per minute: 0.0006 ABS/min
[1]; potassium thiocyanate 0 mM
  Change in absorbance, Containing Antibody (Composition A): 9.3 mABS/min
  Change in absorbance, Without antibody (Composition B): 9.3 mABS/min
  Relative sensitivity: 19.4%
  Percent residual enzyme activity: 100.0%
[1]; potassium thiocyanate 50 mM
  Change in absorbance, Containing Antibody (Composition A): 17.1 mABS/min
  Change in absorbance, Without antibody (Composition B): 17.7 mABS/min
  Relative sensitivity: 37.0%
  Percent residual enzyme activity: 96.6%
[1]; potassium thiocyanate 100 mM
  Change in absorbance, Containing Antibody (Composition A): 22.3 mABS/min
  Change in absorbance, Without antibody (Composition B): 23.4 mABS/min
  Relative sensitivity: 48.9%
  Percent residual enzyme activity: 95.3%
[1]; potassium thiocyanate 140 mM
  Change in absorbance, Containing Antibody (Composition A): 26.1 mABS/min
  Change in absorbance, Without antibody (Composition B): 27.2 mABS/min
  Relative sensitivity: 56.8%
  Percent residual enzyme activity: 96.0%
[1]; potassium thiocyanate 200 mM
  Change in absorbance, Containing Antibody (Composition A): 30.3 mABS/min
  Change in absorbance, Without antibody (Composition B): 31.6 mABS/min
  Relative sensitivity: 66.0%
  Percent residual enzyme activity: 95.9%
[1]; potassium thiocyanate 300 mM
  Change in absorbance, Containing Antibody (Composition A): 37.3 mABS/min
  Change in absorbance, Without antibody (Composition B): 39.3 mABS/min
  Relative sensitivity: 82.0%
  Percent residual enzyme activity: 94.9%
[1]; potassium thiocyanate 400 mM
  Change in absorbance, Containing Antibody (Composition A): 42.6 mABS/min
  Change in absorbance, Without antibody (Composition B): 43.7 mABS/min
  Relative sensitivity: 91.2%
  Percent residual enzyme activity: 97.5%
[1]; potassium thiocyanate 500 mM
  Change in absorbance, Containing Antibody (Composition A): 46.6 mABS/min
  Change in absorbance, Without antibody (Composition B): 46.7 mABS/min
  Relative sensitivity: 97.5%
  Percent residual enzyme activity: 99.8%
[1]; potassium thiocyanate 600 mM
  Change in absorbance, Containing Antibody (Composition A): 48.1 mABS/min
  Change in absorbance, Without antibody (Composition B): 47.5 mABS/min
  Relative sensitivity: 99.2%
  Percent residual enzyme activity: 101.3%
[1]; potassium thiocyanate 700 mM
  Change in absorbance, Containing Antibody (Composition A): 49.9 mABS/min
  Change in absorbance, Without antibody (Composition B): 49.4 mABS/min
  Relative sensitivity: 103.1%
  Percent residual enzyme activity: 101.0%
[1]; potassium thiocyanate 800 mM
  Change in absorbance, Containing Antibody (Composition A): 49.8 mABS/min
  Change in absorbance, Without antibody (Composition B): 48.8 mABS/min
  Relative sensitivity: 101.9%
  Percent residual enzyme activity: 102.0%
[1]; potassium thiocyanate 900 mM
  Change in absorbance, Containing Antibody (Composition A): 48.6 mABS/min
  Change in absorbance, Without antibody (Composition B): 47.9 mABS/min
  Relative sensitivity: 100.0%
  Percent residual enzyme activity: 101.5%
[1]; potassium thiocyanate 200 mM, standard = G3CNP at 900 mM
  relative sensitivity of P-type amylase as multiple of the standard sensitivity: about ⅔
